From patent publication US20210015793A1, “COMPOUNDS FOR TREATING CNS- AND NEURODEGENERATIVE DISEASES” (ETH ZURICH, priority 2018, published 2021)
Read-outs that look alike come from different tables or passages of the source.

Columns and labels:
[1] = Serum concentration by HPLC in healthy human research participants (phase-1 study); format: in vivo; conditions: for concentration at 24 h: both sexes, human, serum, oral, 60 mg/day
Description: Dog serum concentrations of Compound-1, Compound-1F and Compound-4 were determined with serum isolated from the blood of German shepherd dogs (age: 8-9 months) taken at different time points (2 h, 4 h, 6 h, 8, 10 h, 24 h) after oral drug intake. The steady-state serum concentrations of Compound-1, Compound-1F and Compound-4 were determined in mice with blood isolated at the end of the study by cardiac puncture. Serum proteins were removed by acetonitrile precipitation, and compounds were extracted by chloroform before separation on an HPLC-C18 column (Poroshell 120 EC-C18, Agilent) with an HPLC system (Agilent 1100 Series) and detection at OD 280 nm, for Compound-1 and Compound-1F. Detection of Compound-4 was performed at OD 310 nm. The same extraction method was also used to determine Compound-1F in the serum of healthy human research participants. Dog hematology and biochemical parameters were determined by the Center of Applied Analytical and Veterinary Studies, Cairo, Egypt. ECG and blood pressure were measured by Dr. Mohamed Elsaed, Electrocardiography Unit, Faculty of Veterinary Medicine, Cairo University. The study was approved by the ethical committee of the Center of Applied and Veterinary Studies, Cairo, Egypt. Clinical laboratory parameters of human research participants were determined by the Rabaa El Adaweya Medical Central Hospital, Cairo, Egypt.
Study design: The study was a three-part phase-1, randomized, placebo-controlled study of Compound-1F. The primary end-point was safety and tolerability. Secondary objectives were plasma pharmacokinetics data (part-1, part-2, part-3) and peripheral blood mononuclear cell MPP1 status (part-3).
The first part (part-1) was a single ascending dose-effect study with three cohorts of 4 healthy research participants each, who received a single dose of 20 mg, 40 mg or 60 mg in subsequent cohorts. Three drug-treated and one placebo-treated subjects were randomized in each cohort (2 males, 2 females; age: 35-65 years). After completion of safety assessment, blood was drawn for analysis of pharmacokinetics data.
In the second part (part-2) of the study, the daily dose was increased every two days until the final dose of 60 mg/day was reached, i.e. the daily dose was 20 mg on day-1 and day-2, 40 mg on day-3 and day-4, and 60 mg on day-5 until day-14. Blood was drawn before study begin for analysis of laboratory parameters and on day-14 for analysis of laboratory parameters and determination of pharmacokinetics data, at the indicated time points after administration of the last dose of 60 mg. All study participants (n=10; 7 males, 3 females; Caucasians; age: 37-66 years; 8 participants received drug, and two received placebo) were healthy and had the possibility to withdraw from the study at any time. All study participants wanted to complete the study.
In the third part (part-3) of the study, a cohort of 8 healthy elderly voluntary research participants (7 males, 1 female; age 60-73 years; all Caucasians) received a daily oral dose of 60 mg of Compound-1F for 28 days (6 participants received drug, 2 placebo). In part-3 of the study, blood was drawn before study begin for analysis of clinical laboratory parameters and MPP1 status, and on day-28 for analysis of laboratory parameters and MPP1 status, and 24 h after the last drug intake for measurement of serum concentration of Compound-1F. […]

[2] = system: rats subjected to the CUMS protocol; experiment: Sucrose preference test (anhedonia) in rats subjected to CUMS; format: in vivo, rat; conditions: treated during CUMS
Description: The following stimuli were administered each week in a random order: two periods (7 h and 17 h) of 45° cage tilt; soaked cage for 17 h; food deprivation (24 h) and water deprivation (12 h), twice a week; paired housing (17 h); overnight illumination during the dark phase, twice a week; noise (85 dB) in the room for 5 h, twice a week; flashing light (60 flashes/min) for 6 h, three times a week (AbdAlla et al., Biomed. Res. Int. 2015:917156 (2015); El-faramawy et al., Pharmacol. Biochem. Behav. 91, 339-344 (2009)). The sucrose preference test (2% sucrose in water) was done immediately after a period of food and water deprivation.
Symptoms of depression and anhedonia induced by the CUMS protocol as a typical model of depression were determined by the sucrose preference test. For the sucrose preference test, rats (or mice) were trained to consume a sucrose solution (2%), which was put in the cage with a bottle of water. The sucrose consumption was determined at baseline for two weeks before the CUMS protocol (1 test per week, for 1 h, at 9-10 a.m.), and after 4 weeks of CUMS immediately after a period of food (24 h) and water (12 h) deprivation. The ratio of the sucrose-to-water consumption was determined. […] Similarly, the treatment effect of illustrative compounds on prevention of symptoms of depression was assessed by the sucrose preference test. […]

| SMILES | concentration at 24 h ([1]; elderly research participants, 28 days once daily 60 mg, read-out: steady-state serum concentration at 24 h after the last drug intake) [ng/mL] | concentration at 24 h ([1]; healthy humans, repeated dosing 60 mg/day, read-out: serum concentration at 24 h after intake of the last dose) [ng/mL] | dose dependence of serum concentration ([1]; healthy humans, oral Compound-1F 20, 40, 60 mg) | peak serum concentration at t=6 h ([1]; healthy humans, repeated dosing 60 mg/day, n=8) [µg/mL] | time of peak serum concentration after drug intake ([1]; healthy humans, repeated dosing with 60 mg/day) [h] | sucrose consumption in sucrose preference test ([2]; 16-month-old rats, 4 weeks CUMS, vs non-stressed control group) | CUMS-induced anhedonia in sucrose preference test ([2]; young rats (aged 4 months)) |
| --- | --- | --- | --- | --- | --- | --- | --- |
| O=C(C1=C(O)C(c2ccc(F)cc2)N(c2ccc3c(c2)OCO3)C1=O)C1CC1 (stereo not shown) [Compound-1F, 1-(1,3-Benzodioxol-5-yl)-4-(cyclopropanecarbonyl)-2-(4-fluorophenyl)-3-hydroxy-2H-pyrrol-5-one] | 1540 ± 310 | 1470 ± 330 | dose-dependent increase | 5.33 ± 0.76 | 6 |  |  |
| O=C(C1=C(O)C(c2ccccc2)N(c2ccc3c(c2)OCO3)C1=O)C1CC1 (stereo not shown) [Compound-1, 1-(1,3-benzodioxol-5-yl)-4-(cyclopropane-carbonyl)-3-hydroxy-2-phenyl-2H-pyrrol-5-one] |  |  |  |  |  | not significantly different from the non-stressed control group | prevented the development of CUMS-induced anhedonia and symptoms of depression |
